Experimental data taken from patent publication US8871753B2, “Macrocyclic compounds and their use as kinase inhibitors” (Incyte Corporation, priority 2008, dated 2014).
Where a name gives a salt, the structure may show the parent alone. Read-outs that look alike come from different tables or passages of the source.

Columns and labels:
Format in all cases: biochemical
[1] = molecular target: T1, human JAK1 (a.a. 837-1142) (Homo sapiens, UniProt P23458); assay: In vitro JAK kinase assay (HTRF, phosphorylation of a biotinylated peptide), JAK1; conditions: read-out: JAK1 IC50
T1 construct: human JAK1 (a.a. 837-1142); His tag (N); made in house; host or cells: insect cells (baculovirus)
Summary of the method: (§1)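 Kinase activity was measured as phosphorylation of a biotinylated peptide, with ATP at 90 μM for JAK1, 30 μM for JAK2 and 3 μM for JAK3. Reactions ran 1 hr at room temperature, were stopped with EDTA plus SA-APC and Eu-Py20, and were read by HTRF after 40 minutes of antibody binding.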

[2] = molecular target: T2, human JAK2 (a.a. 828-1132) (Homo sapiens, UniProt O60674); assay: In vitro JAK kinase assay (HTRF, phosphorylation of a biotinylated peptide), JAK2
T2 construct: JAK2 (a.a. 828-1132); His tag (N); made in house; host or cells: insect cells (baculovirus)
Summary of the method: as §1

[3] = molecular target: T3, Recombinant Human Anaplastic Lymphoma Kinase (Homo sapiens, UniProt Q9UM73); assay: ALK HTRF kinase assay
T3 construct: purchased Invitrogen, Carlsbad, Calif
From the text: Materials: Recombinant Human Anaplastic Lymphoma Kinase was purchased from Invitrogen, Carlsbad, Calif. Peptide substrate (Biotin-[…]-amide) was custom synthesized at EZBiolab, Westfield, Ind. Streptavidin conjugated SureLight-Allophycocyania and LANCE Eu-W1024 labeled anti-phosphotyrosine antibody were from Perkin-Elmer, Boston, Mass. Microplates were from Corning Inc., Acton, Mass. All other reagents were from Sigma, St. Louis, Mo.
Plates were read in Fusion α-FP instrument (Perkin-Elmer). […] Signal=Bottom+(Top−Bottom)/(1+10^((Log(IC50)−Log [I])*Hill Slope) Bottom and Top refer to the post and pre-transition baselines, respectively.

TYK2 = TYK2 (Homo sapiens, UniProt P29597); assay: TYK2 kinase inhibition (Table A1); conditions: Table B1
[4] = method AA1 (90 μM ATP) or AA2 (1000 μM ATP), not stated per value
[5] = method AA1 (30 μM ATP) or AA2 (1000 μM ATP), not stated per value
[6] = compound at 500 nM or 1 mM, 90 μM ATP
[7] = compound at a concentration of 500 nM or 1 mM (not specified), cells shown as percentage

T1 sequence (P23458 849-1154): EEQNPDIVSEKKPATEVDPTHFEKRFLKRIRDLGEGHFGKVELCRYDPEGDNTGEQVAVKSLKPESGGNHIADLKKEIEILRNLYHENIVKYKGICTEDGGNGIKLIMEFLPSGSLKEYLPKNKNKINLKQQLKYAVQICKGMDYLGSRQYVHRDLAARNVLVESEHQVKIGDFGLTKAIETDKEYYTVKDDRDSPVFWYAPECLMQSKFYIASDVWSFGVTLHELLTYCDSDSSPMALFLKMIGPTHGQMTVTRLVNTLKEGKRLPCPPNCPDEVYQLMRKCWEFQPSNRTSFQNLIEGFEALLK
T3 sequence (Q9UM73 19-1620): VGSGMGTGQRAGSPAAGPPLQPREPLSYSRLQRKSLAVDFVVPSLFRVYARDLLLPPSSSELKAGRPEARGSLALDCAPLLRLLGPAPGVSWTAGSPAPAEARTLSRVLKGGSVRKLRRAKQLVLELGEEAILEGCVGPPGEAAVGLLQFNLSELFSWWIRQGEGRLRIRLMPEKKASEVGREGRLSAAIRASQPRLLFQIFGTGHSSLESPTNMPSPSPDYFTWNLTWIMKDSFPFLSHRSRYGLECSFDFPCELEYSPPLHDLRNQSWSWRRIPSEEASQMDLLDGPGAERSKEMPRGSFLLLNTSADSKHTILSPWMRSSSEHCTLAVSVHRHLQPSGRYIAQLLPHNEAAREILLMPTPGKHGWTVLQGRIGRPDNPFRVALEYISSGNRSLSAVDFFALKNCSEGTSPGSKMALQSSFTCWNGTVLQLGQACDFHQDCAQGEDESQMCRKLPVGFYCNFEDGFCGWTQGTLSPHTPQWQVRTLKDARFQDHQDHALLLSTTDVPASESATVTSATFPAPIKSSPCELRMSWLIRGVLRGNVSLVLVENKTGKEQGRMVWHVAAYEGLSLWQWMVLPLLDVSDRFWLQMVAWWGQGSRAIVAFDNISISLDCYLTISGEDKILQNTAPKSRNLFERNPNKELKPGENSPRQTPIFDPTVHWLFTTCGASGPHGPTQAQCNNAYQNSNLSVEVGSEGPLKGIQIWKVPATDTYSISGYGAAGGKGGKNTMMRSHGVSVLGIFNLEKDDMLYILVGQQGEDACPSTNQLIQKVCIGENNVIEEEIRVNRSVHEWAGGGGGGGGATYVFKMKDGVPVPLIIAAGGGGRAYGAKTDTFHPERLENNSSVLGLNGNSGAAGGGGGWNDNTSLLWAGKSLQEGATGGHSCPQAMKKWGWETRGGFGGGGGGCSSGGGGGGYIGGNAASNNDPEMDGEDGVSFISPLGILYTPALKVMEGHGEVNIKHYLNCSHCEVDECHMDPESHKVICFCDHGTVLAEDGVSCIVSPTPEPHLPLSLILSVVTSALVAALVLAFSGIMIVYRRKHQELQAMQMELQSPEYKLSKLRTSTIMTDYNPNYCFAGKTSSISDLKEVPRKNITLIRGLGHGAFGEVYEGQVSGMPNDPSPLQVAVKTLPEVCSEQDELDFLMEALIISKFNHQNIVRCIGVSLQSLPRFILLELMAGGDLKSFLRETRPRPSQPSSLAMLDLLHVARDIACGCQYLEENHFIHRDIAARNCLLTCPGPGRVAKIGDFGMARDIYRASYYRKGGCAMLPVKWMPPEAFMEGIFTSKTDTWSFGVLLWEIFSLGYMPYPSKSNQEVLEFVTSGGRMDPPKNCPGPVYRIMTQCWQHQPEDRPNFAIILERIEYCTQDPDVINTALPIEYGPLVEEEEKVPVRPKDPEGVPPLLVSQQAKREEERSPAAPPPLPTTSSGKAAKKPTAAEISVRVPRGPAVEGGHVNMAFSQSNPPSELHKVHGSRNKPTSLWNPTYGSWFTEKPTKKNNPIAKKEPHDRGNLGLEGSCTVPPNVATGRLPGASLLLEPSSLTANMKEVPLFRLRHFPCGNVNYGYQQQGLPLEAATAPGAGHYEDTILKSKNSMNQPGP
T2 sequence (O60674 828-1132): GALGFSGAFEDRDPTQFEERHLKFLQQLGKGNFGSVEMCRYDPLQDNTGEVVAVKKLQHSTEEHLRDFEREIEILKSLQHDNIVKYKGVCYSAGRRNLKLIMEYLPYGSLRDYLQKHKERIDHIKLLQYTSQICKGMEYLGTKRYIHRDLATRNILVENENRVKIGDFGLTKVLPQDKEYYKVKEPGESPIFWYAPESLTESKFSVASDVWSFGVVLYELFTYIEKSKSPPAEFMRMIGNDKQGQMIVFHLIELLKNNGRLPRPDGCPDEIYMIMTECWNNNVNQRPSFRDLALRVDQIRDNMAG
Sequence of TYK2 (P29597 whole entry): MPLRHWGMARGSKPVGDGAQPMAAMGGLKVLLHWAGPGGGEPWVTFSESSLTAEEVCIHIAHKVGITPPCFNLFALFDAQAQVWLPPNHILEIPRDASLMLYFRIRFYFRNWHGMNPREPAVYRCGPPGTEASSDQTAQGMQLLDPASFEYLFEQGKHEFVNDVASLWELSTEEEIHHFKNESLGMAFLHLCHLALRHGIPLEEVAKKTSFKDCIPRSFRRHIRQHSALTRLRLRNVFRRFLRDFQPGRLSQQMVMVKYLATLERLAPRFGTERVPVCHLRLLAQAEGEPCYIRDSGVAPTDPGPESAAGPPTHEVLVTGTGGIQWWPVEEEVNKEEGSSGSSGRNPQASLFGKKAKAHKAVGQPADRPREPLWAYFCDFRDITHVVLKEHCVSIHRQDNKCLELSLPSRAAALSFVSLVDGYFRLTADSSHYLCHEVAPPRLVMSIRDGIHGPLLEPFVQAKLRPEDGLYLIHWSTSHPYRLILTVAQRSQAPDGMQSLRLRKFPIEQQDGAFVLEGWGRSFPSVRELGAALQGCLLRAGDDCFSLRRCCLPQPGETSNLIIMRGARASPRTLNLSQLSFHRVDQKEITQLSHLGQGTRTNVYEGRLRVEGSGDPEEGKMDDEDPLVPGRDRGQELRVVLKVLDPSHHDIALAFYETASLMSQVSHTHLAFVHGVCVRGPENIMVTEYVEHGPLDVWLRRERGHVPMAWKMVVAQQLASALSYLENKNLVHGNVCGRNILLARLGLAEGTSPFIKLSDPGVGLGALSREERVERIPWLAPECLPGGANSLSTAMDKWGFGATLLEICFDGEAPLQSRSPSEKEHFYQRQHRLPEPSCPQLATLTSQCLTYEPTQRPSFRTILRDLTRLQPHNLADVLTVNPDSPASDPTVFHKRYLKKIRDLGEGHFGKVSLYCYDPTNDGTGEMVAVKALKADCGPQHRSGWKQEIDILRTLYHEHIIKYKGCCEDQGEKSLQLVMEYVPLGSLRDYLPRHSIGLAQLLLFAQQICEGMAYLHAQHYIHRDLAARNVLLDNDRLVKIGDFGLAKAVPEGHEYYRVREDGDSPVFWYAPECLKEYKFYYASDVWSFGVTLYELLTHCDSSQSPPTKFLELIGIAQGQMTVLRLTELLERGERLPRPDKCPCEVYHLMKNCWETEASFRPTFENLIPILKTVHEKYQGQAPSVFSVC

## Cc1ccc(C(=O)N2CCC(CC(=O)Nc3ccc4cc3CCc3cncc(c3)Nc3ncc(Cl)c(n3)N4)CC2)o1 [Example A162, N-[6-Chloro-2,4,8,18,22-pentaazatetracyclo[14.3.1.1(3,7).1(9,13)]docosa-1(20),3(22),4,6,9(21),10,12,16,18-nonaen-12-yl]-2-[1-(5-methyl-2-furoyl)piperidin-4-yl]acetamide bis(trifluoroacetate)]
[1]; [4]
  IC50: 8.2 nM
[2]; [5]
  IC50: 289 nM
[3]; [6]
  ALK % of inhibition at a concentration of 500 nM or 1 mM: 33%

## Cn1ccnc1C(=O)N1CCC(CC(=O)Nc2ccc3cc2CCc2cncc(c2)Nc2ncc(Cl)c(n2)N3)CC1 [Example A164, N-[6-Chloro-2,4,8,18,22-pentaazatetracyclo[14.3.1.1(3,7).1(9,13)]docosa-1(20),3(22),4,6,9(21),10,12,16,18-nonaen-12-yl]-2-{1-[(1-methyl-1H-imidazol-2-yl)carbonyl]piperidin-4-yl}acetamide bis(trifluoroacetate)]
[1]; [4]
  IC50: 5.3 nM
[2]; [5]
  IC50: 175 nM
[3]; [6]
  ALK % of inhibition at a concentration of 500 nM or 1 mM: 14%

## Cc1nocc1C(=O)N1CCC(CC(=O)Nc2ccc3cc2CCc2cncc(c2)Nc2ncc(Cl)c(n2)N3)CC1 [Example A165, N-[6-Chloro-2,4,8,18,22-pentaazatetracyclo[14.3.1.1(3,7).1(9,13)]docosa-1(20),3(22),4,6,9(21),10,12,16,18-nonaen-12-yl]-2-{1-[(3-methylisoxazol-4-yl)carbonyl]piperidin-4-yl}acetamide bis(trifluoroacetate)]
[1]; [4]
  IC50: 64 nM
[2]; [5]
  IC50: > 1000 nM
[3]; [6]
  ALK % of inhibition at a concentration of 500 nM or 1 mM: 23%

## Cc1nonc1C(=O)N1CCC(CC(=O)Nc2ccc3cc2CCc2cncc(c2)Nc2ncc(Cl)c(n2)N3)CC1 [Example A166, N-[6-Chloro-2,4,8,18,22-pentaazatetracyclo[14.3.1.1(3,7).1(9,13)]docosa-1(20),3(22),4,6,9(21),10,12,16,18-nonaen-12-yl]-2-{1-[(4-methyl-1,2,5-oxadiazol-3-yl)carbonyl]piperidin-4-yl}acetamide bis(trifluoroacetate)]
[1]; [4]
  IC50: 6.5 nM
[2]; [5]
  IC50: 300 nM
[3]; [6]
  ALK % of inhibition at a concentration of 500 nM or 1 mM: 32%

## Nc1nonc1C(=O)N1CCC(CC(=O)Nc2ccc3cc2CCc2cncc(c2)Nc2ncc(Cl)c(n2)N3)CC1 [Example A167, 2-{1-[(4-Amino-1,2,5-oxadiazol-3-yl)carbonyl]piperidin-4-yl}-N-[6-chloro-2,4,8,18,22-pentaazatetracyclo[14.3.1.1(3,7).1(9,13)]docosa-1(20),3(22),4,6,9(21),10,12,16,18-nonaen-12-yl]acetamide tris(trifluoroacetate)]
[1]; [4]
  IC50: 0.6 nM
[2]; [5]
  IC50: 59 nM
[3]; [6]
  ALK % of inhibition at a concentration of 500 nM or 1 mM: 33%

## O=S(=O)(Nc1ccc2cc1CCc1cccc(c1)Nc1ncc(Cl)c(n1)N2)c1ccccc1C(F)(F)F [Example B164, N-[6-Chloro-2,4,8,22-tetraazatetracyclo[14.3.1.1(3,7).1(9,13)]docosa-1(20), 3(22),4,6,9(21),10,12,16,18-nonaen-12-yl]-2-(trifluoromethyl)benzenesulfonamide trifluoroacetate]
[1]; Table B1
  IC50: 8 nM
[2]; Table B1
  IC50: 8.4 nM
TYK2
  IC50: 8.1 nM
[3]; [7]
  ALK % of inhibition at a concentration of 500 nM or 1 mM: 4.6%

## NC1CCN(c2ccnc(Nc3ccc4cc3CCc3cncc(c3)Nc3ncc(Cl)c(n3)N4)n2)CC1 [Example B282, N-[4-(4-Aminopiperidin-1-yl)pyrimidin-2-yl]-6-chloro-2,4,8,18,22-pentaazatetracyclo[14.3.1.1(3,7).1(9,13)]docosa-1(20),3(22),4,6,9(21),10,12,16,18-nonaen-12-amine tetrakis(trifluoroacetate)]
[1]; Table B1
  IC50: > 1000 nM
[2]; Table B1
  IC50: > 1000 nM
[3]; [7]
  ALK % of inhibition at a concentration of 500 nM or 1 mM: 0%
